Where a name gives a salt, the structure may show the parent alone.
molecular target: T1, glycine transporter-1 (GlyT-1) (Homo sapiens, UniProt P48067); test: [14C]glycine uptake assay in JAR cells endogenously expressing GlyT-1 (scintillation proximity); type: cell-based; settings: JAR cells, [14C]glycine 5 μM, 3 hour incubation; read-out: GlyT-1 IC50
T1 construct: JAR cells (ATCC#HTB-144), which endogenously express GlyT-1; host or cells: JAR human choriocarcinoma cells
T1 sequence (P48067 1-706): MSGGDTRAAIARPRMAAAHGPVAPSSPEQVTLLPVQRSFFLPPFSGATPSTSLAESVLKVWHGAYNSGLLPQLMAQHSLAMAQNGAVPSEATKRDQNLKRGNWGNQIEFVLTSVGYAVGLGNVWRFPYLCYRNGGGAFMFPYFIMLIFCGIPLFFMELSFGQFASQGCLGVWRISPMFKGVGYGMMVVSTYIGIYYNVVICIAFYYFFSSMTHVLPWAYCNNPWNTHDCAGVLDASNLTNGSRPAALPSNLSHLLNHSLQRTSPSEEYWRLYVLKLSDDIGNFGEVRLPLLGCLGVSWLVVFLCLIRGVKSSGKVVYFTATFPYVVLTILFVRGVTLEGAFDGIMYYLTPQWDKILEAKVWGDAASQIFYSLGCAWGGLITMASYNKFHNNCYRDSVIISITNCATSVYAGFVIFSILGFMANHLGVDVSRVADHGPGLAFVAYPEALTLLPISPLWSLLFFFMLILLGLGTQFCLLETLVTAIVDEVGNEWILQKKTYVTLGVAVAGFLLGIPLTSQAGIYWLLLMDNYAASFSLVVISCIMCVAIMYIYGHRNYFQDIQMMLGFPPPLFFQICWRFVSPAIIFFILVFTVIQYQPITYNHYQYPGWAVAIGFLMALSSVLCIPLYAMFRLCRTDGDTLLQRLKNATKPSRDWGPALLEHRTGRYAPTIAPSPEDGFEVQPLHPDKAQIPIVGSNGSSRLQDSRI
Procedure, shortened: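 IC50 comes from a four-parameter fit of nine-point, duplicate curves measuring inhibition of 5 μM [14C]glycine uptake, read by scintillation proximity after 3 h at 37 °C. Cells are human JAR, which express GlyT-1 endogenously, given 10 min compound pre-treatment in pH 7.4 buffer with 5 mM alanine and 0.75% DMSO.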

IC50 [nM] | Structure (SMILES)
875 | CCS(=O)(=O)N1CCN(C2(CNC(=O)c3c(F)ccc(Cl)c3F)CCC(F)(F)CC2)CC1 [compound 213, 3-Chloro-N-((1-(4-(ethylsulfonyl)piperazin-1-yl)-4,4-difluorocyclohexyl)methyl)-2,6-difluorobenzamide Hydrochloride]
329 | CCS(=O)(=O)N1CCN(C2(CNC(=O)c3cc(F)c(F)cc3Cl)CCC(F)(F)CC2)CC1 [compound 214, 2-Chloro-N-((1-(4-(ethylsulfonyl)piperazin-1-yl)-4,4-difluorocyclohexyl)methyl)-4,5-difluorobenzamide Hydrochloride]
2460 | CCS(=O)(=O)N1CCN(C2(CNC(=O)c3c(Cl)ccc(C(F)(F)F)c3Cl)CCC(F)(F)CC2)CC1 [compound 215, 2,6-Dichloro-N-((1-(4-(ethylsulfonyl)piperazin-1-yl)-4,4-difluorocyclohexyl)methyl)-3-(trifluoromethyl) benzamide Hydrochloride]
1290 | CCS(=O)(=O)N1CCN(C2(CNC(=O)c3c(F)cc(OC)cc3F)CCC(F)(F)CC2)CC1 [compound 216, N-((1-(4-(Ethylsulfonyl)piperazin-1-yl)-4,4-difluorocyclohexyl)methyl)-2,6-difluoro-4-methoxybenzamide Hydrochloride]
216 | CCS(=O)(=O)N1CCN(C2(CNC(=O)c3c(C)cc(C)cc3C)CCC(F)(F)CC2)CC1 [compound 217, N-((1-(4-(Ethylsulfonyl)piperazin-1-yl)-4,4-difluorocyclohexyl)methyl)-2,4,6-trimethylbenzamide Hydrochloride]
10 | Cn1cc(S(=O)(=O)N2CCN(C3(CNC(=O)c4ccc(F)cc4F)CCC(F)(F)CC3)CC2)nn1 [compound 229, N-((4,4-Difluoro-1-(4-(1-methyl-1H-1,2,3-triazol-4-ylsulfonyl)piperazin-1-yl)cyclohexyl)methyl)-2,4-difluorobenzamide Hydrochloride]
2 | CC1CN(S(=O)(=O)c2cn(C)nn2)C(C)CN1C1(CNC(=O)c2ccc(C(F)(F)F)cc2C(F)(F)F)CCC(F)(F)CC1 (stereo not shown) [compound 237, N-((1-(2,5-Dimethyl-4-(1-methyl-1H-1,2,3-triazol-4-ylsulfonyl)piperazin-1-yl)-4,4-difluorocyclohexyl)methyl)-2,4-bis(trifluoromethyl) benzamide Hydrochloride]
12 | Cn1cc(S(=O)(=O)N2CCN(C3(CNC(=O)c4cc(F)c(Cl)cc4F)CCC(F)(F)CC3)CC2)nn1 [compound 238, 4-Chloro-N-((4,4-difluoro-1-(4-(1-methyl-1H-1,2,3-triazol-4-ylsulfonyl)piperazin-1-yl)cyclohexyl)methyl)-2,5-difluorobenzamide Hydrochloride]
20 | Cc1cc(F)c(C(=O)NCC2(N3CCN(S(=O)(=O)c4cn(C)nn4)CC3)CCC(F)(F)CC2)cc1F [compound 239, N-((4,4-Difluoro-1-(4-(1-methyl-1H-1,2,3-triazol-4-ylsulfonyl)piperazin-1-yl)cyclohexyl)methyl)-2,5-difluoro-4-methylbenz-amide Hydrochloride]
49 | Cl.[2H]C([2H])([2H])n1cc(S(=O)(=O)N2CCN(C3(CNC(=O)c4ccc(C(F)(F)F)cc4Cl)CCC(F)(F)CC3)CC2)nn1 [compound 240, 2-Chloro-N-((4,4-difluoro-1-(4-(1-(tris-deutero)methyl-1H-1,2,3-triazol-4-ylsulfonyl)piperazin-1-yl)cyclohexyl)methyl)-4-(trifluoromethyl)benzamide Hydrochloride]
1 | Cn1cc(S(=O)(=O)N2CCN(C3(CNC(=O)c4c(F)cc(Cl)cc4Cl)CCC(F)(F)CC3)CC2)nn1 [compound 241, 2,4-Dichloro-N-((4,4-difluoro-1-(4-(1-methyl-1H-1,2,3-triazol-4-ylsulfonyl)piperazin-1-yl)cyclohexyl)methyl)-6-fluorobenzamide Hydrochloride]
1 | Cc1ccc(C(=O)NCC2(N3CCN(S(=O)(=O)c4cn(C)nn4)CC3)CCC(F)(F)CC2)c(Cl)c1F [compound 242, 2-Chloro-N-((4,4-difluoro-1-(4-(1-methyl-1H-1,2,3-triazol-4-ylsulfonyl)piperazin-1-yl)cyclohexyl)methyl)-3-fluoro-4-methylbenzamide Hydrochloride]
57 | CCCS(=O)(=O)N1CCN(C2(CNC(=O)c3cc(Cl)ccc3Cl)CCC(F)(F)CC2)CC1 [compound 243, 2,5-Dichloro-N-((4,4-difluoro-1-(4-(propylsulfonyl)piperazin-1-yl)cyclohexyl)methyl) benzamide Hydrochloride]
51 | CCC(F)S(=O)(=O)N1CCN(C2(CNC(=O)c3ccc(C(F)(F)F)cc3Cl)CCC(F)(F)CC2)CC1 (stereo not drawn) [compound 244, 2-Chloro-N-((4,4-difluoro-l-(4-(1-fluoropropylsulfonyl)piperazin-1-yl)cyclohexyl)methyl)-4-(trifluoromethyl)benzamide Hydrochloride]
37 | CCCS(=O)(=O)N1CCN(C2(CNC(=O)c3ccc(C4CC4)cc3Cl)CCC(F)(F)CC2)CC1 [compound 247, 2-Chloro-4-cyclopropyl-N-((4,4-difluoro-1-(4-(propylsulfonyl)piperazin-1-yl)cyclohexyl)methyl) benzamide Hydrochloride]
159 | CCCS(=O)(=O)N1CCN(C2(CNC(=O)c3cc(C(F)(F)F)ccc3C(F)(F)F)CCC(F)(F)CC2)CC1 [compound 248, N-((4,4-Difluoro-1-(4-(propylsulfonyl)piperazin-1-yl)cyclohexyl)methyl)-2,5-bis(trifluoromethyl) benzamide Hydrochloride]
37 | CCCS(=O)(=O)N1CCN(C2(CNC(=O)c3ccc(Cl)cc3OC(F)F)CCC(F)(F)CC2)CC1 [compound 249, 4-Chloro-N-((4,4-difluoro-1-(4-(propylsulfonyl)piperazin-1-yl)cyclohexyl)methyl)-2-(difluoromethoxy) benzamide Hydrochloride]
24 | CCCS(=O)(=O)N1CCN(C2(CNC(=O)c3c(F)cccc3OC(F)F)CCC(F)(F)CC2)CC1 [compound 250, N-((4,4-Difluoro-1-(4-(propylsulfonyl)piperazin-1-yl)cyclohexyl)methyl)-2-(difluoromethoxy)-6-fluorobenzamide Hydrochloride]
987 | CCC(F)(F)S(=O)(=O)N1CCN(C2(CNC(=O)c3ccc(C(F)(F)F)cc3Cl)CCC(F)(F)CC2)CC1 [compound 251, 2-Chloro-N-((1-(4-(1,1-difluoropropylsulfonyl)piperazin-1-yl)-4,4-difluorocyclohexyl)methyl)-4-(trifluoromethyl) benzamide Hydrochloride]
14 | CCCS(=O)(=O)N1CCN(C2(CNC(=O)c3c(F)cc(Cl)cc3Cl)CCC(F)(F)CC2)CC1 [compound 255, 2,4-Dichloro-N-((4,4-difluoro-1-(4-(propylsulfonyl)piperazin-1-yl)cyclohexyl)methyl)-6-Fluorobenzamide Hydrochloride]
223 | CCCS(=O)(=O)N1CCN(C2(CNC(=O)c3c(F)ccc(C(F)(F)F)c3F)CCC(F)(F)CC2)CC1 [compound 262, N-((4,4-Difluoro-1-(4-(propylsulfonyl)piperazin-1-yl)cyclohexyl)methyl)-2,6-difluoro-3-(trifluoromethyl)benzamide Hydrochloride]
228 | CCCS(=O)(=O)N1CCN(C2(CNC(=O)c3c(Cl)ccc(C(F)(F)F)c3Cl)CCC(F)(F)CC2)CC1 [compound 265, 2,6-Dichloro-N-((4,4-difluoro-1-(4-(propylsulfonyl)piperazin-1-yl)cyclohexyl)methyl)-3-(trifluoromethyl) benzamide Hydrochloride]
238 | CCCS(=O)(=O)N1CCN(C2(CNC(=O)c3c(F)cccc3F)CCCOCC2)CC1 (stereo not shown) [compound 268, 2,6-Difluoro-N-((4-(4-(propylsulfonyl)piperazin-1-yl)oxepan-4-yl)methyl)benzamide Hydrochloride]
817 | O=C(NCC1(N2CCN(S(=O)(=O)c3cccnc3)CC2)CCC(F)(F)CC1)c1c(F)cccc1F [compound 269, N-((4,4-Difluoro-1-(4-(pyridin-3-ylsulfonyl)piperazin-1-yl)cyclohexyl)methyl)-2,6-difluorobenzamide Hydrochloride]
350 | O=C(NCC1(N2CCN(S(=O)(=O)N3CCC3)CC2)CCC(F)(F)CC1)c1ccc(C(F)(F)F)cc1Cl [compound 271, N-((1-(4-(azetidin-1-ylsulfonyl)piperazin-1-yl)-4,4difluorocyclohexyl)methyl)-2-chloro-4-(trifluoromethyl)benzamide Hydrochloride]

Reference: US9045445B2, “Glycine transporter-1 inhibitors, methods of making them, and uses thereof” (Albany Molecular Research, Inc., priority 2010, dated 2015)
